For 16 compounds, IC50 results are on record in patent US20050054696A1, “Indole compounds and medicinal use thereof” (priority 2001, published 2005).

In this test the target is T1, recombinant human liver glycogen phosphorylase (HLGPa) (Homo sapiens, UniProt P06737).
T1 construct: made in house; host or cells: Sf9 insect cells (unpurified cell lysate used as enzyme solution)
T1 sequence (P06737 1-847): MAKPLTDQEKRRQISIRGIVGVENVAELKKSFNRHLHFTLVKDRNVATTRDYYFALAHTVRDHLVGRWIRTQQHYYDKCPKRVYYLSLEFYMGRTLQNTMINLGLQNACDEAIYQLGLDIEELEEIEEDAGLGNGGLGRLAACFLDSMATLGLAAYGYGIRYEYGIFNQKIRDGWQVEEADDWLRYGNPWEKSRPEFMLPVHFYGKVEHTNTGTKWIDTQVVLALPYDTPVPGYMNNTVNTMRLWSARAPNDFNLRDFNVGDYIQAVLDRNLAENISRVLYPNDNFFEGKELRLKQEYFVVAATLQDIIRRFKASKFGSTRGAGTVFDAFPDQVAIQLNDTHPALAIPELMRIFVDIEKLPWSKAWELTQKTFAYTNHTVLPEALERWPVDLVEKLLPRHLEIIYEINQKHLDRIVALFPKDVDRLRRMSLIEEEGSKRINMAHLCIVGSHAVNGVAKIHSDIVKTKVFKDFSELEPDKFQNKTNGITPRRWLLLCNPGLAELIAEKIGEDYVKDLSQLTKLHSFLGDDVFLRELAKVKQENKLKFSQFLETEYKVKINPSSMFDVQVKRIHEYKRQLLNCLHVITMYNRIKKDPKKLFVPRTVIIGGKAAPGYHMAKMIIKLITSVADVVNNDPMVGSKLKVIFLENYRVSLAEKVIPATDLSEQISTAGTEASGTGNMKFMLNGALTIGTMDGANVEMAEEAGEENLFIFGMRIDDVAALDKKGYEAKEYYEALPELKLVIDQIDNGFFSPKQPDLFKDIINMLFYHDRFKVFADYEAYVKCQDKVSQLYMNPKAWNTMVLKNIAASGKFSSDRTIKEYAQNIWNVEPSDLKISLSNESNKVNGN
Nature of the test: Measurement of liver glycogen phosphorylase activity (enzyme inhibitory activity against HLGPa). Type of test: biochemical. The settings on record: Sf9 cell lysate expressing recombinant enzyme; reverse reaction (glycogen synthesis from G1-P), phosphate by malachite green, 60 min room temperature. Summed up: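 Activity was run in the reverse, glycogen-synthesis direction, using Sf9 lysate expressing recombinant human liver glycogen phosphorylase (enzyme solution 80 μg/mL protein, pH 7.0). Substrate solution was Tris pH 7.2 with 1.25 mM glucose-1-phosphate, 2.5 mg/ml glycogen and 7.5 mM glucose, reacted 60 min at room temperature. Released phosphate was measured by malachite green A650, with % inhibition taken against DMSO control and no-enzyme blank.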
On to `O=C(NN1C(=O)CCN(c2cccc(F)c2)C1=O)c1cc2cc(Cl)ccc2[nH]1` [Example 3-7, 5-chloro-1H-indole-2-carboxylic acid (1-(3-fluorophenyl)-2,4-dioxoperhydropyrimidin-3-yl)amide], for which the half-maximal inhibitory concentration (IC50) (in general, the concentration that inhibits the measured activity by half) turned out to be 50 nM. The figure for `O=C(NNC(=O)c1ccc(Cl)cc1Cl)c1cc2cc(Cl)ccc2[nH]1` [Example 1-24, 2,4-dichlorobenzoic acid 2-(5-chloro-1H-indole-2-carbonyl)hydrazide] is 170 nM; for `Cc1ccc(C(=N)NNC(=O)c2cc3cc(Cl)ccc3[nH]2)cc1` [Example 1-129, 5-chloro-1H-indole-2-carboxylic acid 2-(imino-(p-tolyl)-methyl)hydrazide] it is 59 nM; for `CN(C)C(=O)COc1cccc(C(=O)NNC(=O)c2cc3cc(Cl)ccc3[nH]2)c1` [Example 1-71, 2-(3-(2-(5-chloro-1H-indole-2-carbonyl)hydrazinocarbonyl)phenoxy)-N,N-dimethylacetamide] it is 62 nM. As for `Nc1ccsc1C(=O)NNC(=O)c1cc2cc(Cl)ccc2[nH]1` [Example 1-101, 3-aminothiophene-2-carboxylic acid 2-(5-chloro-1H-indole-2-carbonyl)hydrazide], the IC50 came out at 35 nM. `N=C(NNC(=O)c1cc2cc(Cl)ccc2[nH]1)c1c(F)cccc1F` [Example 6-25, 5-chloro-1H-indole-2-carboxylic acid 2-((2,6-difluorophenyl)-imino-methyl)hydrazide methanesulfonate]: the IC50 was determined as 330 nM. To `O=C(NNC(=O)c1cc2cc(Cl)ccc2[nH]1)Nc1ccccc1Cl` [Example 5-9, 5-chloro-1H-indole-2-carboxylic acid 2-((2-chloroanilino)carbonyl)hydrazide] belongs above 100 nM. The figure for `O=C(NN1C(=O)[C@H]2CCCN2C1=O)c1cc2cc(Cl)ccc2[nH]1` [Example 4-8, 5-chloro-1H-indole-2-carboxylic acid ((4R)-1,3-dioxo-perhydropyrrolo[1,2-c]imidazol-2-yl)amide] is above 100 nM. Turning to `O=C(Nn1c(=O)[nH]c2ccccc2c1=O)c1cc2ccc(Cl)cc2[nH]1` [Example 2-12, 6-chloro-1H-indole-2-carboxylic acid (1,2,3,4-tetrahydro-2,4-dioxoquinazolin-3-yl)amide], the half-maximal inhibitory concentration (IC50) worked out at 440 nM. Regarding `O=C(NNC(=O)c1cc2cc(Cl)ccc2[nH]1)c1cnccn1` [Example 1-82, pyrazine-2-carboxylic acid 2-(5-chloro-1H-indole-2-carbonyl)hydrazide], the IC50 was 360 nM.

As for `CN(C)C(=O)Oc1ccccc1C(=O)NNC(=O)c1cc2cc(Cl)ccc2[nH]1` [Example 1-65, 2-(2-(5-chloro-1H-indole-2-carbonyl)hydrazinocarbonyl)phenyl dimethylcarbamate], the IC50 was above 100 nM.

Consider `CC(=O)Oc1ccc2[nH]c(=O)n(NC(=O)c3cc4cc(C)ccc4[nH]3)c(=O)c2c1` [Example 2-29, acetic acid 3-((5-methyl-1H-indole-2-carbonyl)amino)-1,2,3,4-tetrahydro-2,4-dioxoquinazolin-6-yl ester], for which the IC50 is 270 nM. To `N=C(NNC(=O)c1cc2cc(Cl)ccc2[nH]1)c1ccc(F)c(F)c1` [Example 6-23, 5-chloro-1H-indole-2-carboxylic acid 2-((3,4-difluorophenyl)-imino-methyl)hydrazide methanesulfonate] belongs 67 nM. Take `CC(C)c1ccc2[nH]c(C(=O)NNC(=O)c3ccccc3N)cc2c1` [Example 1-36, 2-aminobenzoic acid 2-(5-isopropyl-1H-indole-2-carbonyl)hydrazide]: the IC50 was above 100 nM. The figure for `O=C(NNC(=O)c1cc2cc(F)ccc2[nH]1)c1ccccc1` [Example 1-9, benzoic acid 2-(5-fluoro-1H-indole-2-carbonyl)hydrazide] is 73 nM. As to `O=C(NNC(=O)c1cccc(F)c1F)c1cc2cc(Cl)ccc2[nH]1` [Example 1-91, 2,3-difluorobenzoic acid 2-(5-chloro-1H-indole-2-carbonyl)hydrazide], the IC50 worked out at 56 nM.
